Results from patent US6566359B1, “2,4,6-trimethyl-1,4-dihydro-pyridine-3,5-dicarboxylic acid esters as neuroprotective drugs” (Board of Supervisors of Louisiana State University and …, priority 2002, dated 2003).
Values joined by “and” are separate entries in the source; they are usually repeats but may differ in a detail not shown here. Equal values may be shown once.

Assays:
[1] = tested on: human COX-2 promoter; assay: IL-1β-induced COX-2 promoter-luciferase transcription in CV-1 cells; type: cell-based; settings: 100 nM compound, 10 nM IL-1β
Protocol: (§1) To test the ability of LAU-0900 series compounds to inhibit COX-2 expression, a kidney cell line was transiently transfected with the 830-base-pair human COX-2 promoter construct (proximal to the transcription start site) fused to the luciferase gene as a reporter as described below.
(§2) Transfection of CV-1 cells with human COX-2promoterfused with LUC: C V-1 Cells (African green monkey kidney cell line, ATCC # CCL-17) were grown in DMEM-F12 (GIBCO-BRL, Rockville, Md.) supplemented with 10% FBS (fetal bovine serum) in 6-well plates. At 80% confluence, the cells were transfected with 10 μg human COX-2 promoter-LUC construct (containing 830 base pairs of the human COX-2 promoter (donated by Dr. Stephen Prescot, Huntsman Cancer Institute, Salt Lake City, Utah) using a liposomal transfection reagent (DOTAP, Roche Diagnostics, Gmbh, Mannheim, Germany). Promoterless β-galactosidase construct (Promega, Madison, Wis.) was co-transfected to assess transfection efficiency. Three hours after transfection at 37° C., the medium was removed, and the cells were washed with phonsphate-buffered saline solution, pH 7.2 (PBS; Gibco-BRL, Rockville Md. The plates were further incubated at 37° C. in complete medium DMEM-F12 with 10% FBS for about 8-10 hr. Before the addition of the inducers of COX-2, PAF (100 nM) or IL-1β (10 ng/ml), the CV-1-transfected cells were serum-starved for 8 hr at 37° C. After the addition of the inducers, the cells were incubated for 8-10 hr at 37° C. Then the medium was removed, the cells were washed with PBS, harvested, and frozen at −80° C. until used for assays.
(§3) To test the effectiveness of the LAU-0900 series compounds, the transfected cells were treated for 1 hr with 100 nM of various LAU-0900 series compounds before the addition of the inducers (either PAF or IL-1β, and the LAU-0900 compound remained in the medium throughout the incubation period.
(§4) Luciferase assay of transfected CV-1 cells: Frozen cells were homogenized in 300 μl luciferase assay buffer (“ALL”, Analytical Luminescence Laboratory, San Diego, Calif.), and cellular debris was collected as a pellet by centrifugation at 2800×g for 20 min at 4° C. Supernatants (20-30 μl) were normalized to 1 μg/ml of total protein content, and were mixed with 70-80 μl ALL buffer. Reactions were initiated by injection of 100 μl of 1 mM luciferin (Sigma Chemical Co., St. Louis, Mo.). The relative light units were determined by using an ALL luminometer that recorded over 20-second intervals.

[2] = tested on: human COX-2 promoter; assay: PAF-induced COX-2 promoter-luciferase transcription in CV-1 cells; type: cell-based; settings: 100 nM compound, 100 nM PAF
Protocol: as §1, §2, §3, §4

[3] = MCA-O with 21 days reperfusion, Cresil-Violet histology; type: in vivo, C57-bl/6 mice; settings: 30 mg/kg i.p. once 1 hr after onset of reperfusion
Protocol: In a second group of experiments, C57-bl/6 mice were treated with either a sham procedure, or with 1 hr with MCA-O followed by a reperfusion period of 21 days. Cresil-violet staining was used to assess brain damage in brain slices obtained as above. […] (Data not shown.). […] (Data not shown).
In a third set of experiments, the MCA-O treated mice were injected once with the LAU-0900 series compounds (LAU-0901, LAU-0904, and LAU-0911; at 30 mg/kg) or vehicle 1 hr after the onset of reperfusion. The LAU-0900 compounds were solubilized in 45% 2-hydroxypropyl-β-cyclodextrine (Sigma Chemical Co.), and delivered intraperitoneally. The mice were reperfused for 21 days, and killed. Coronal sections of mouse brains were processed for histology, and stained with Cresil-Violet. Sections from individual animals were analyzed, with pictures of the right side (infarcted) of the brain compared to the left side, which show almost no damage.
(Data not shown). […] Almost normal morphology was found in the brains of the LAU-0900-treated animals, indicating a high degree of protection. (Data not shown), even though administered 1 hr after the initiation of reperfusion.

[4] = Middle cerebral artery occlusion (MCA-O) stroke model, infarct volume by TTC; type: in vivo, C57BL/6 mice; settings: 30 mg/kg 1 hr after reperfusion following 1 hr of MCA-O
[5] = tested on: COX-2 mRNA; assay: COX-2 mRNA expression after cryogenic injury (vasogenic cerebral edema), Northern blot; type: in vivo, Sprague-Dawley rats; settings: rat
Protocol: Brain COX-2 gene expression is known to be enhanced as a result of injury as well as by seizures (Marcheselli and Bazan, 1996), and PAF receptors are involved in COX-2 expression (Bazan et al, 1994). To further test the LAU-0900 series compounds as PAF antagonists, the compounds were tested in an in vivo model for the potential blocking of injury-induced COX-2 induction. Adult Sprague-Dawley rats, 175 to 250 g body weight, were purchased from a commercial breeder (Charles River Laboratories, Wilmington, Mass.). One group of four rats received an intra-cerebroventricular injection of LAU-0903 (10 mg/kg in DMSO as a vehicle), 15 min before the generation of cerebral edema. Another group of four rats received an intraperitoneal injection of desxmethasone every 8 hr for a period of 24 hr prior to injury. Animals were immobilized by ether anesthesia, and vasogenic cerebral edema was generated by the application of a liquid nitrogen-cooled probe for 1 min on the parietal region of the skull. The rats were allowed to recover for either 2 or 6 hr before being decapitated to sample the brain. Total brain tissues were obtained, and total-RNA was extracted. The RNA was then assayed by Northern blot analysis for COX-2 mRNA. […] Autoradiography or phosphorimage quantification was performed.

[6] = target: T1, PAF receptor in CHO-A cells (moderately exp PAF-R) (Cavia porcellus, UniProt P21556); assay: Competition for 3H-PAF binding to CHO-A cell homogenates
T1 construct: expressed in transfected cells; host or cells: Chinese hamster ovary cells: CHO-B (high expression) and CHO-A (mild expression), used as cell homogenates
Protocol: Binding studies were performed on subcellular fractions of tissues obtained from rat brain cortex, according to procedures described in V. Marcheselli et al., “Distinct platelet-activating factor binding sites in synaptic endings and in intracellular membranes of rat cerebral cortex,” J. biol. Chem., vol. 265, pp. 9140-9145 (1990). Freshly dissected brain tissues were homogenized in ice-cold buffer (50 mM Tris-HCl, 2 mM EGTA, 5 mM PMSF, 250 mM sucrose, 7.4 pH). Subcellular fractions were obtained by differential centrifugation. The microsomal fraction was sedimented after 100,000×g for 1 hour centrifugation. In addition, three cell lines from Chinese hamster ovary (CHO) with varying expression of PAF receptors, CHO-A, CHO-B, and CHO-C cells (from Dr. Takao Shiizu, University of Tokyo, Tokyo, Japan) were cultured to the fourth-passage cells. These cells were cultured to confluence, then detached from their culturing flasks, and pelleted by rapid centrifugation (3,000 rpm, 10 min). Cellular pellets were homogenized in ice-cold buffer as described above. Freshly obtained microsomal fractions or CHO cellular homogenates were utilized for saturation, displacement, and competition studies using ^3H-PAF as the hot ligand, unlabeled-PAF to detect non-specific binding, and a LAU-0900 series compound to displace by competition ^3H-PAF bound to a receptor. […]

[7] = target: intracellular type PAF receptor (rat brain microsomal preparations) (Rattus norvegicus, UniProt P46002); assay: Competition for 3H-PAF binding to rat brain cortex microsomal membranes; settings: rat brain cortex microsomal preparation
Protocol: (§5) Binding studies were performed on subcellular fractions of tissues obtained from rat brain cortex, according to procedures described in V. Marcheselli et al., “Distinct platelet-activating factor binding sites in synaptic endings and in intracellular membranes of rat cerebral cortex,” J. biol. Chem., vol. 265, pp. 9140-9145 (1990). Freshly dissected brain tissues were homogenized in ice-cold buffer (50 mM Tris-HCl, 2 mM EGTA, 5 mM PMSF, 250 mM sucrose, 7.4 pH). Subcellular fractions were obtained by differential centrifugation. The microsomal fraction was sedimented after 100,000×g for 1 hour centrifugation. In addition, three cell lines from Chinese hamster ovary (CHO) with varying expression of PAF receptors, CHO-A, CHO-B, and CHO-C cells (from Dr. Takao Shiizu, University of Tokyo, Tokyo, Japan) were cultured to the fourth-passage cells. These cells were cultured to confluence, then detached from their culturing flasks, and pelleted by rapid centrifugation (3,000 rpm, 10 min). Cellular pellets were homogenized in ice-cold buffer as described above. Freshly obtained microsomal fractions or CHO cellular homogenates were utilized for saturation, displacement, and competition studies using ^3H-PAF as the hot ligand, unlabeled-PAF to detect non-specific binding, and a LAU-0900 series compound to displace by competition ^3H-PAF bound to a receptor.

[8] = Evans Blue accumulation in brain cortex in vasogenic cerebral edema; type: in vivo, rat; settings: LAU-0903 30 μg/kg intra-ventricularly 15 min before injury; dexamethasone 6.2 μg/kg i.p. every 8 hr for 24 hr; 2 hr and 12 hr after injury
[9] = target: T2, cell-surface-type PAF receptor over-expressed in CHO-B cells (Cavia porcellus, UniProt P21556); assay: Competition for 3H-PAF binding to CHO-B cell homogenates
T2 construct: expressed in transfected cells; host or cells: Chinese hamster ovary cells: CHO-B (high expression) and CHO-A (mild expression), used as cell homogenates
Protocol: as §5
(§6) See B. Liu et al., “Implication of protein kinase C alpha in PAF-stimulated phospholipase D Activation in Chinese hamster ovary (CHO) cells expressing PAF receptor,” Biochem. Biophys. Res. Commun., vol.214, pp.418-423 (1995). […] Both the constants of inhibition (KI) and 50% of inhibitory activity (IC50) were significant at a low concentration of LAU-0903.

[10] = tested on: CHO-C cells (do not exp PAF-R); assay: Competition for 3H-PAF binding to CHO-C cell homogenates
Protocol: as §5, §6

T2 sequence (P21556 whole entry): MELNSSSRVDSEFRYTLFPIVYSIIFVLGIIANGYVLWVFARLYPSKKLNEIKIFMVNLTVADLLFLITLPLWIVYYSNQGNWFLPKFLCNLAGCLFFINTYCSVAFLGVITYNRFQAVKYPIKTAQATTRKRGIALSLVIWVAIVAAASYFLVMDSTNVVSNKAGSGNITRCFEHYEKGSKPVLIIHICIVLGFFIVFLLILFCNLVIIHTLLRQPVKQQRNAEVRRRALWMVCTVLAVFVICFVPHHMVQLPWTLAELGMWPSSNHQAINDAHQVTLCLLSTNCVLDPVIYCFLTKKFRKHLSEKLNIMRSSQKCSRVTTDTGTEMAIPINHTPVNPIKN
T1 sequence (P21556 whole entry): as above
intracellular type PAF receptor (rat brain microsomal preparations), sequence (P46002 whole entry): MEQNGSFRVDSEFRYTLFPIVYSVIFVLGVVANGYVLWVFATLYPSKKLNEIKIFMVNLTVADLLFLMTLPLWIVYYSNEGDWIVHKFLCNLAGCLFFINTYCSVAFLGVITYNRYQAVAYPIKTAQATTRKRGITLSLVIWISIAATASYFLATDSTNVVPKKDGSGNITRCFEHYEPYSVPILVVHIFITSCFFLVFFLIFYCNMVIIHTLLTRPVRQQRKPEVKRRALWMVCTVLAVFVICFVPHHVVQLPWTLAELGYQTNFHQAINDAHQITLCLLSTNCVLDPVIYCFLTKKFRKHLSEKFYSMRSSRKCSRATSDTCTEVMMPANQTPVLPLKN

Row | KI ([6]; CHO-A homogenates) | IC50 ([6]; CHO-A homogenates (moderately express PAF-R)) | Significance of 3H-PAF displacement ([9]; CHO-B cell homogenates) | IC50 ([9]; CHO-B homogenates (heavily overexpress PAF-R)) | SMILES | Inhibition of COX-2 transcription induced by IL-1β [1] | Inhibition of COX-2 transcription induced by PAF [2] | Protection from brain damage (Cresil-Violet histology) [3] | Reduction of infarcted volume [4] [%] | Inhibition of cryogenically induced COX-2 mRNA ([5]; 10 mg/kg intra-cerebroventricular 15 min before injury) | Duration of COX-2 mRNA inhibition after a single injection ([5]; 10 mg/kg intra-cerebroventricular) | Competitive activity at 3H-PAF binding sites (curve profile) [7] | Effect on accumulation of Evans Blue in brain cortex [8] | KI ([10]; CHO-C homogenates) | IC50 ([10]; CHO-C homogenates (do not express PAF-R))
1 |  |  |  |  | COC(=O)C1=C(C)NC(C)=C(C(=O)OCCCOc2cc(OC)c(OC)c(OC)c2)C1C (stereo not shown) [LAU-0911, 2,4,6-Trimethyl-1,4-dihydro-pyridine-3,5-dicarboxylic acid 5-(3,4,5-trimethoxyphenoxy)-propyl-1-ester 3-methyl ester] | inhibited | inhibited | significant protection | 40 |  |  |  |  |  | 
2 | No displacement | No displacement | significant displacement | ~0.0538 nM and 0.0538 nM | COC(=O)C1=C(C)NC(C)=C(C(=O)OCCCSc2ccc(-n3ccnc3)cc2)C1C (stereo not shown) [LAU-0903, 2,4,6-Trimethyl-1,4-dihydro-pyridine-3,5-dicarboxylic acid 5-[3-(imidazol-1-yl-phenylsulphanyl)]-propyl-1-ester 3-methyl ester] | inhibited | inhibited |  |  | more than 50% | up to 6 hours | competitive activity at both binding sites | protective effect | No displacement | No displacement
